In the data set the test system is plasma protein. Format: in vitro ADME, dog. As to the method: One dialysis device was used in an equilibrium dialysis study to measure plasma protein binding of warfarin. A 0.1 M warfarin solution was prepared by dissolving 0.154 g of warfarin in 5 ml of phosphate buffered salts (PBS). The pH was adjusted with 400 Tl of 6 M NaOH to a final volume of 5.761 ml and a final concentration of 86.8 mM. The warfarin solution was then diluted to 1 mM before adding to the plasma solution. 2.2 Tl of 1 mM warfarin was added to 2.2 ml plasma to make 1 TM final concentration of warfarin in the plasma. 1 ml of the warfarin-containing dog plasma was added inside the cylindrical membrane of each dialysis device and 1 ml of PBS to outside of the membrane. The filled device was placed in a 37° C. incubator with gentle shaking 100 Tl samples were withdrawn separately from the plasma and the buffer chambers at 0.5, 1, 2, 3, and 4 h intervals. To the plasma sample was added 100 μl of blank buffer. To the buffer sample was added 100 μl of blank plasma. After mixing, 50 μl of the plasma sample was withdrawn. To the plasma sample (50 μl) was added 450 μl of 1:1 ratio of plasma/buffer solution to make a 10-fold dilution. The sample from the buffer was not diluted. 200 μl acetonitrile was added to 200 μl each of the samples from plasma and the buffer. The mixtures were vortexed and then centrifuged at 13,000 rpm for 3 min. The resulting extracts were analyzed using an API-40003 LC/MS/MS system (Applied Biosciences/MDS SCIEX). […] The experiment was conducted in duplicate.

A value given as a limit tells only on which side of the number the result lay.

The values that follow come from patent publication US8034242B2, “Dialysis device” (Linden Technologies, Inc., priority 2004, dated 2011).

Consider `CC(=O)CC(c1ccccc1)c1c(O)c2ccccc2oc1=O` (stereo not drawn) [warfarin], for which the “consistency of equilibrium curve (time to equilibrium)” value is ≤ 1 h and the “dialysis reached equilibrium state (time)” value is ≤ 30 min. In addition, the “ratio of protein binding” value (dog, 1 µM) was ~99%.
